Experimental data: patent US12497365B2, “4-pyridinyl formamide compound or derivative thereof, preparation method therefor, herbicidal composition and use thereof” (Qingdao Kingagroot Chemical Compound Co., Ltd., priority 2019, dated 2025)

How the values were obtained:
Test in all cases: Weeding effect in post-emergence stage
Format in all cases: in vivo
Conditions in all cases: active ingredient 2000 g/ha, 3 weeks after application, fresh weight control rate
[1] = tested on: Amaranthus retroflexus L.
Source text: (§1) The activity level criteria for plant damage (i.e., growth control rate) are as follows:
(§2) The above growth control rates are fresh weight control rates.
(§3) Experiment on weeding effect in post-emergence stage: monocotyledonous and dicotyledonous weed seeds and major crop seeds (wheat, corn, rice, soybean, cotton, oilseed rape, millet, sorghum) were placed in plastic pots filled with soil, then covered with 0.5-2 cm of soil, allowed to grow in a good greenhouse environment. After 2 weeks of sowing, the test plants were treated in the 2-3 leaf stage. The tested compounds of the present invention were respectively dissolved in acetone at the dosage of 2000, 1000, 500, 250, 125 g/ha, then added with Tween 80 and 1.5 liter/ha of emulsifiable concentrate of methyl oleate as synergist, diluted with a certain amount of water to obtain a solution with a certain concentration, and sprayed with a spray tower onto the plants. After the application, the plants were cultured for 3 weeks in the greenhouse, and then the experimental results were listed in Table 1.

[2] = tested on: Chenopodium album
Source text: as §1, §2, §3

[3] = tested on: Descurainia sophia
Source text: as §1, §2, §3

[4] = tested on: Abutilon theophrasti
Source text: as §1, §2, §3

SMILES	Weeding effect, activity level (growth control rate), Amaranthus retroflexus L. [1]	Weeding effect, activity level (growth control rate), Chenopodium album [2]	Weeding effect, activity level (growth control rate), Descurainia sophia [3]	Weeding effect, activity level (growth control rate), Abutilon theophrasti [4]
Cn1nnnc1NC(=O)c1ccnc(-c2ccc(CBr)cc2)c1Cl [Compound 1-24]	5 (Level 5: growth control rate is above 85%)	5 (Level 5: growth control rate is above 85%)	5 (Level 5: growth control rate is above 85%)	5 (Level 5: growth control rate is above 85%)
Cn1nnnc1NC(=O)c1ccnc(-c2ccc(I)cc2)c1Cl [Compound 1-25]	5 (Level 5: growth control rate is above 85%)	5 (Level 5: growth control rate is above 85%)	5 (Level 5: growth control rate is above 85%)	5 (Level 5: growth control rate is above 85%)
Cn1nnnc1NC(=O)c1ccnc(-c2cccc(C(F)(F)F)c2)c1Cl [Compound 1-26]	5 (Level 5: growth control rate is above 85%)	5 (Level 5: growth control rate is above 85%)	5 (Level 5: growth control rate is above 85%)	5 (Level 5: growth control rate is above 85%)
Cn1nnnc1NC(=O)c1ccnc(-c2ccc(C(F)(F)F)cc2)c1Cl [Compound 1-27]	5 (Level 5: growth control rate is above 85%)	5 (Level 5: growth control rate is above 85%)	5 (Level 5: growth control rate is above 85%)	5 (Level 5: growth control rate is above 85%)
COc1ccccc1-c1nccc(C(=O)Nc2nnnn2C)c1Cl [Compound 1-28]	5 (Level 5: growth control rate is above 85%)	5 (Level 5: growth control rate is above 85%)	5 (Level 5: growth control rate is above 85%)	5 (Level 5: growth control rate is above 85%)
COc1cccc(-c2nccc(C(=O)Nc3nnnn3C)c2Cl)c1 [Compound 1-29]	5 (Level 5: growth control rate is above 85%)	5 (Level 5: growth control rate is above 85%)	5 (Level 5: growth control rate is above 85%)	5 (Level 5: growth control rate is above 85%)
COc1ccc(-c2nccc(C(=O)Nc3nnnn3C)c2Cl)cc1 [Compound 1-30]	5 (Level 5: growth control rate is above 85%)	5 (Level 5: growth control rate is above 85%)	5 (Level 5: growth control rate is above 85%)	5 (Level 5: growth control rate is above 85%)
Cn1nnnc1NC(=O)c1ccnc(-c2ccccc2OC(F)(F)F)c1Cl [Compound 1-31]	5 (Level 5: growth control rate is above 85%)	5 (Level 5: growth control rate is above 85%)	5 (Level 5: growth control rate is above 85%)	5 (Level 5: growth control rate is above 85%)
Cn1nnnc1NC(=O)c1ccnc(-c2cccc(OC(F)(F)F)c2)c1Cl [Compound 1-32]	5 (Level 5: growth control rate is above 85%)	5 (Level 5: growth control rate is above 85%)	5 (Level 5: growth control rate is above 85%)	5 (Level 5: growth control rate is above 85%)
Cn1nnnc1NC(=O)c1ccnc(-c2ccc(OC(F)(F)F)cc2)c1Cl [Compound 1-33]	5 (Level 5: growth control rate is above 85%)	5 (Level 5: growth control rate is above 85%)	5 (Level 5: growth control rate is above 85%)	5 (Level 5: growth control rate is above 85%)
Cn1nnnc1NC(=O)c1ccnc(-c2ccccc2O)c1Cl [Compound 1-34]	5 (Level 5: growth control rate is above 85%)	5 (Level 5: growth control rate is above 85%)	5 (Level 5: growth control rate is above 85%)	5 (Level 5: growth control rate is above 85%)
Cn1nnnc1NC(=O)c1ccnc(-c2ccc(O)cc2)c1Cl [Compound 1-35]	5 (Level 5: growth control rate is above 85%)	5 (Level 5: growth control rate is above 85%)	5 (Level 5: growth control rate is above 85%)	5 (Level 5: growth control rate is above 85%)
Cn1nnnc1NC(=O)c1ccnc(-c2cccc(CO)c2)c1Cl [Compound 1-36]	5 (Level 5: growth control rate is above 85%)	5 (Level 5: growth control rate is above 85%)	5 (Level 5: growth control rate is above 85%)	5 (Level 5: growth control rate is above 85%)
Cn1nnnc1NC(=O)c1ccnc(-c2ccc(N)cc2)c1Cl [Compound 1-37]	5 (Level 5: growth control rate is above 85%)	5 (Level 5: growth control rate is above 85%)	5 (Level 5: growth control rate is above 85%)	5 (Level 5: growth control rate is above 85%)
Cn1nnnc1NC(=O)c1ccnc(-c2ccccc2[N+](=O)[O-])c1Cl [Compound 1-38]	5 (Level 5: growth control rate is above 85%)	5 (Level 5: growth control rate is above 85%)	5 (Level 5: growth control rate is above 85%)	5 (Level 5: growth control rate is above 85%)
Cn1nnnc1NC(=O)c1ccnc(-c2ccc(C(=O)O)cc2)c1Cl [Compound 1-39]	5 (Level 5: growth control rate is above 85%)	5 (Level 5: growth control rate is above 85%)	5 (Level 5: growth control rate is above 85%)	5 (Level 5: growth control rate is above 85%)
COC(=O)c1ccc(-c2nccc(C(=O)Nc3nnnn3C)c2Cl)cc1 [Compound 1-40]	5 (Level 5: growth control rate is above 85%)	5 (Level 5: growth control rate is above 85%)	5 (Level 5: growth control rate is above 85%)	5 (Level 5: growth control rate is above 85%)
Cn1nnnc1NC(=O)c1ccnc(-c2ccc(C(=O)OC(C)(C)C)cc2)c1Cl [Compound 1-41]	5 (Level 5: growth control rate is above 85%)	5 (Level 5: growth control rate is above 85%)	5 (Level 5: growth control rate is above 85%)	5 (Level 5: growth control rate is above 85%)
CSc1ccccc1-c1nccc(C(=O)Nc2nnnn2C)c1Cl [Compound 1-42]	5 (Level 5: growth control rate is above 85%)	5 (Level 5: growth control rate is above 85%)	5 (Level 5: growth control rate is above 85%)	5 (Level 5: growth control rate is above 85%)
CC(C)Sc1ccc(-c2nccc(C(=O)Nc3nnnn3C)c2Cl)cc1 [Compound 1-43]	5 (Level 5: growth control rate is above 85%)	5 (Level 5: growth control rate is above 85%)	5 (Level 5: growth control rate is above 85%)	5 (Level 5: growth control rate is above 85%)
Cn1nnnc1NC(=O)c1ccnc(-c2cccc(S(C)(=O)=O)c2)c1Cl [Compound 1-44]	5 (Level 5: growth control rate is above 85%)	5 (Level 5: growth control rate is above 85%)	5 (Level 5: growth control rate is above 85%)	5 (Level 5: growth control rate is above 85%)
